In patent publication US20220340566A1, “BENZYL AMINE-CONTAINING 5,6-HETEROAROMATIC COMPOUNDS USEFUL AGAINST MYCOBACTERIAL INFECTION” (priority 2019, published 2022):

Assays:
[1] = tested on: Mycobacterium avium ATCC700898; experiment: Determination of IC85 against M. avium (resazurin fluorescence); assay type: cell-based; settings: Mycobacterium avium, ATCC700898, M. avium ATCC700898, CAMHB medium, 37° C., 3 days incubation then resazurin, fluorescence one day later; read-out: IC85
[2] = Metabolic stability test in pooled human liver microsomes; assay type: in vitro ADME; settings: human liver microsomes 0.5 mg protein/mL, 1 mmol/L NADPH, 37° C., 30 minutes
Method in brief: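 Remaining-rate readout: parent compound left after 30 min versus 0 min (set as 100%), measured by LC/MS/MS or SPE/MS. Oxidative reaction ran at 37° C. with 1 mmol/L NADPH, 0.5 mg protein/mL pooled human microsomes, 50 mmol/L Tris-HCl pH 7.4 buffer.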

Row | SMILES | IC85 [1] [µM] | MS_h_% (remaining amount of compound after reaction, 0 minute = 100%) [2] [%]
1 | CCc1nc2cc(F)ccn2c1C(=O)NCc1ccc(N2CCN(c3ccc(OC(F)(F)C(F)(F)F)cc3)[C@@H](C)C2)c(F)c1.Cl [Compound I-1-121] | 0.003 | 95
2 | Cc1nn2ccc(Br)cc2c1C(=O)NCc1ccc(N2CCN(c3ccc(OC(F)(F)F)cc3)[C@@H](C)C2)c(F)c1.Cl [Compound I-1-122] | 0.066 | 81
3 | COc1ccn2nc(C)c(C(=O)NCc3ccc(N4CCC(c5ccc(OC(F)(F)F)cc5)CC4)c(F)c3)c2c1.Cl [Compound I-1-123] | 0.014 | 77
4 | CCc1nc2cc(F)ccn2c1C(=O)NCc1ccc(N2CCN(c3ccc(OC(F)(F)F)cc3)[C@H]3CCCC[C@@H]32)c(F)c1.Cl [Compound I-1-124] | 0.87 | 63
5 | COc1ccn2nc(C)c(C(=O)NCc3ccc(N4CCN(c5ccc(OC(F)(F)F)cc5)[C@H]5CCCC[C@@H]54)c(F)c3)c2c1 [Compound I-1-125] | 0.78 | 68
6 | Cc1ccn2nc(C(F)(F)F)c(C(=O)NCc3ccc(N4CCN(c5ccc(OC(F)(F)F)cc5)[C@@H](C)C4)c(F)c3)c2c1.Cl [Compound I-1-126] | 0.27 | 77
7 | CCc1nc2cc(F)ccn2c1C(=O)NCc1ccc(N2CCC(c3ccc(OC(F)(F)F)cc3)CC2)c(Cl)c1.Cl [Compound I-1-127] | 0.0077 | 93
8 | COc1ccn2nc(C)c(C(=O)NCc3ccc(N4CCC(c5ccc(OC(F)(F)F)cc5)CC4)c(Cl)c3)c2c1.Cl [Compound I-1-128] | 0.018 | 85
9 | COc1ccn2nc(C)c(C(=O)NCc3cc(F)c(N4CCN(c5ccc(OC(F)(F)F)cc5)[C@@H](C)C4)c(F)c3)c2c1.Cl [Compound I-1-129] | 0.0068 | 80
10 | COc1ccn2nc(C)c(C(=O)NCc3ccc(N4CCN(c5ccc(OC(F)(F)F)cc5)[C@@H](C)C4)c(F)c3F)c2c1.Cl [Compound I-1-130] | 0.049 | 74
11 | COc1ccn2nc(C)c(C(=O)NCc3cc(F)c(N4CCN(c5ccc(OC(F)(F)F)cc5)[C@@H](C)C4)cc3F)c2c1.Cl [Compound I-1-131] | 0.045 | 73
12 | COc1ccn2nc(C)c(C(=O)NCc3ccc(N4CCN(c5ccc(OC(F)(F)F)cc5)[C@@H](C)C4)c(Cl)c3)c2c1.Cl [Compound I-1-132] | 0.014 | 62
13 | COc1ccn2nc(C)c(C(=O)NCc3cc(F)c(N4CCC(c5ccc(OC(F)(F)F)cc5)CC4)c(F)c3)c2c1.Cl [Compound I-1-133] | 0.019 | 81
14 | CCc1nc2ccc(Cl)cn2c1C(=O)NCc1ccc(N2C[C@H](C)N(c3ccc(OCC(F)(F)F)nc3)C[C@H]2C)c(F)c1.Cl [Compound I-1-134] | 0.043 | 65
15 | CCc1nc2cc(F)ccn2c1C(=O)NCc1ccc(N2C[C@H](C)N(c3ccc(OCC(F)(F)F)nc3)C[C@H]2C)c(F)c1.Cl [Compound I-1-135] | 0.12 | 75
16 | CCc1nc2cc(F)ccn2c1C(=O)NCc1ccc(N2C[C@H](C)N(c3ccc(OC(F)(F)F)cc3)C[C@H]2C)c(F)c1.Cl [Compound I-1-136] | 0.016 | 86
17 | Cc1nc2ccc(Cl)cn2c1C(=O)NCc1ccc(N2C[C@H](C)N(c3ccc(OCC(F)(F)F)nc3)C[C@H]2C)c(F)c1.Cl [Compound I-1-137] | 0.1 | 91
18 | CCc1nc2ccc(Cl)cn2c1C(=O)NCc1ccc(C2=CCC(c3ccc(OC(F)(F)F)cc3)CC2)c(F)c1.Cl (stereo not shown) [Compound I-1-138] | 0.0068 | 83
19 | CCc1nc2ccc(Cl)cn2c1C(=O)NCc1ccc(N2CCN(c3ccc(OC(F)(F)F)cc3)[C@@H](C)C2)c(Cl)c1.Cl [Compound I-1-139] | 0.009 | 61
20 | Cc1nc2ccc(Cl)cn2c1C(=O)NCc1ccc(N2CCN(c3ccc(OC(F)(F)F)cc3)[C@@H](C)C2)c(Cl)c1.Cl [Compound I-1-140] | 0.0057 | 89
21 | CCc1nc2cc(F)ccn2c1C(=O)NCc1ccc(N2CCN(c3ccc(OC(F)(F)F)cc3)[C@@H](C)C2)c(Cl)c1.Cl [Compound I-1-141] | 0.002 | 93
22 | CCc1nc2ccc(Cl)cn2c1C(=O)NCc1ccc(C2CCN(c3ccc(OCC(F)(F)F)nc3)CC2)cc1F.Cl [Compound I-1-142] | 0.03 | 71

Row | SMILES | IC85 [1] [µM] | MS_h_% (remaining amount of compound after reaction, 0 minute = 100%) [2] [%]
23 | CCOc1ccc(N2CCC(c3ccc(CNC(=O)c4c(CC)nc5ccc(Cl)cn45)c(F)c3)CC2)cc1.Cl [Compound I-1-143] | 0.023 | 77
24 | CCc1nc2ccc(Cl)cn2c1C(=O)NCc1ccc(C2CCN(c3ccc(C(C)(C)C)cc3)CC2)cc1F.Cl [Compound I-1-144] | 0.017 | 67
25 | CCCCOc1ccc(N2CCC(c3ccc(CNC(=O)c4c(CC)nc5ccc(Cl)cn45)c(F)c3)CC2)cc1.Cl [Compound I-1-145] | 0.016 | 80
26 | CCc1nc2cc(F)ccn2c1C(=O)NCc1ccc(C2CCN(c3ccc(OCC(F)(F)F)nc3)CC2)cc1F.Cl [Compound I-1-146] | 0.026 | 85
27 | CCOc1ccc(N2CCC(c3ccc(CNC(=O)c4c(CC)nc5cc(F)ccn45)c(F)c3)CC2)cc1.Cl [Compound I-1-147] | 0.0083 | 91
28 | CCc1nc2cc(F)ccn2c1C(=O)NCc1ccc(C2CCN(c3ccc(C)cc3)CC2)cc1F.Cl [Compound I-1-148] | 0.0054 | 73
29 | CCc1nc2cc(F)ccn2c1C(=O)NCc1ccc(C2CCN(c3ccc(C(C)(C)C)cc3)CC2)cc1F.Cl [Compound I-1-149] | 0.015 | 63
30 | CCc1nc2cc(F)ccn2c1C(=O)NCc1ccc(C2CCN(c3ccc(C(F)(F)F)cc3)CC2)cc1F.Cl [Compound I-1-150] | 0.0024 | 65
31 | CCCCOc1ccc(N2CCC(c3ccc(CNC(=O)c4c(CC)nc5cc(F)ccn45)c(F)c3)CC2)cc1.Cl [Compound I-1-151] | 0.01 | 88
32 | Cc1nn2ccc(F)cc2c1C(=O)NCc1ccc(N2CCN(c3ccc(OC(F)(F)F)cc3)[C@@H](C)C2)c(F)c1.Cl [Compound I-1-152] | 0.11 | 87
33 | COc1ccn2nc(C)c(C(=O)NCc3ccc(N4C[C@H](C)N(c5ccc(OC(F)(F)F)cc5)C[C@H]4C)c(F)c3)c2c1.Cl [Compound I-1-153] | 0.031 | 72
34 | Cc1nc2cc(F)ccn2c1C(=O)NCc1ccc(N2CCC(c3ccc(OC(F)(F)F)cc3)CC2)c(F)c1 [Compound I-2-1] | 0.016 | 106
35 | COc1ccn2c(C(=O)NCc3ccc(N4CCN(c5ccc(OC(F)(F)F)cc5)[C@@H](C)C4)c(F)c3)c(C)nc2c1 [Compound I-2-2] | 0.37 | 97.7
36 | CCc1nc2cc(F)ccn2c1C(=O)NCc1ccc(N2CCN(c3ccc(OCC(F)(F)F)nc3)[C@@H](CC)C2)c(F)c1.Cl [Compound I-2-3] | 0.017 | 90.3
37 | CCc1nc2cc(F)ccn2c1C(=O)NCc1ccc(N2CCN(c3ccc(OC(F)(F)F)cc3)[C@@H](CC)C2)c(F)c1.Cl [Compound I-2-4] | 0.0065 | 90.1
38 | Cc1nc2ccc(F)cn2c1C(=O)NCc1ccc(N2CCN(c3ccc(C(F)(F)F)cn3)CC2)c(C(F)(F)F)c1 [Compound I-2-5] | 0.42 | 81.8
39 | CCCC[C@H]1CN(c2ccc(CNC(=O)c3c(CC)nc4cc(F)ccn34)cc2F)CCN1c1ccc(OC(F)(F)F)cc1.Cl [Compound I-2-6] | 0.0044 | 80.8
40 | Cc1cn2c(C(=O)NCc3ccc(N4CCN(c5ccc(C(F)(F)F)cn5)CC4)c(C(F)(F)F)c3)c(C)nc2cc1Cl [Compound I-2-7] | 0.59 | 79.3
41 | Cc1nc2ccc(F)cn2c1C(=O)NCc1ccc(N2CC(c3ccc(OC(F)(F)F)cc3)C2)c(F)c1 [Compound I-2-8] | 0.13 | 74.9
42 | CC[C@H]1CN(c2ccc(CNC(=O)c3c(C)nn4ccc(OC)cc34)cc2F)CCN1c1ccc(OC(F)(F)F)cc1.Cl [Compound I-2-9] | 0.019 | 73.5
43 | CCc1nc2ccc(Cl)cn2c1C(=O)NCc1ccc(N2CCN(c3ccc(OC(F)(F)F)cc3F)[C@@H](CC)C2)c(F)c1.Cl [Compound I-2-10] | 0.023 | 72.2
44 | Cc1nc2ccc(Br)cn2c1C(=O)NCc1ccc(N2CCN(c3ccc(C(F)(F)F)cn3)CC2)c(F)c1 [Compound I-2-11] | 0.02 | 71.7
